Test results as given in patent US20250215029A1 (Recludix Pharma, Inc., priority 2022, published 2025).
Read-outs that look alike come from different tables or passages of the source.

What was measured:
pY641-STAT6 in PBMC = biological target: T1, pY641-STAT6 in PBMC (Homo sapiens, UniProt P42226); experiment: MSD-pSTAT-PBMC Assay (pSTAT6, IL-4 stimulated); type: cell-based; settings: compound 3 hrs, then 1 ng/mL IL-4 for 10 min
T1 construct: Cryopreserved Peripheral Blood Mononuclear Cells (PBMC) are from AllCells; host or cells: cryopreserved PBMC
T1 sequence (P42226 1-847): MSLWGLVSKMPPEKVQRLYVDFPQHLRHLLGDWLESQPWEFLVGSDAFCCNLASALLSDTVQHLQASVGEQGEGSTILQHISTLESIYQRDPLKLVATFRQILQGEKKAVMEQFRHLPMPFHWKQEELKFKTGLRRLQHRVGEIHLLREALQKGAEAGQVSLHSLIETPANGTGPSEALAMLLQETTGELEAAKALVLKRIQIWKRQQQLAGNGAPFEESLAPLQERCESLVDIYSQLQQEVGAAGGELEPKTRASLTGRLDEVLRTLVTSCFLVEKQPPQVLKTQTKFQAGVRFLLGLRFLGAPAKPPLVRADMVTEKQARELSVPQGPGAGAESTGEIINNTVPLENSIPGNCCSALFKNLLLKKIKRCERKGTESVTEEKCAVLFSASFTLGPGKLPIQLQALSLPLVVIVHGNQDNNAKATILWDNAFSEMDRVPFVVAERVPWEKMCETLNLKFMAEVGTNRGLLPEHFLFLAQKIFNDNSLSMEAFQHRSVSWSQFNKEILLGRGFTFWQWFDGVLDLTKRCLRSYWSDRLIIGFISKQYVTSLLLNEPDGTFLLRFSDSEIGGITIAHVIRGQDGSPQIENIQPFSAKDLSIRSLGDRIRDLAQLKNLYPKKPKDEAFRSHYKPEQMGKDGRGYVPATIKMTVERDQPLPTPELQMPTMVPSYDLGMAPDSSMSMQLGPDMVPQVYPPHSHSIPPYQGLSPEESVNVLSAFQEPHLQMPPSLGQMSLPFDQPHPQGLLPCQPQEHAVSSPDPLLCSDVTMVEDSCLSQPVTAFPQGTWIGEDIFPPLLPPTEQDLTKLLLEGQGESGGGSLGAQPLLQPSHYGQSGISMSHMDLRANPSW
In short: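 MSD electrochemiluminescence read-out: total STAT captured, probed with anti-pY641-STAT6 or anti-pY705-STAT3. Human PBMC, 3 h compound pretreatment, 10 min stimulation (IL-4 1 ng/mL or IL-6 10 ng/mL). Unstimulated signal subtracted, DMSO-normalized, variable-slope IC50.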

pY705-STAT3 in PBMC = biological target: T2, pY705-STAT3 in PBMC (Homo sapiens, UniProt P40763); experiment: MSD-pSTAT-PBMC Assay (pSTAT3, IL-6 stimulated); type: cell-based; settings: PBMC, compound 3 hrs, then 10 ng/mL IL-6 for 10 min
T2 construct: Cryopreserved Peripheral Blood Mononuclear Cells (PBMC) are from AllCells; host or cells: cryopreserved PBMC
In short: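 pY705-STAT3 was detected electrochemiluminescently on total-STAT3 capture plates, using lysates of human PBMCs given compound for 3 h and then IL-6 (10 ng/mL, 10 min). Values were background-subtracted against unstimulated wells and set relative to DMSO. IC50 was fitted with variable slope.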

[1] = PBMC, Table 1114, read-out: pSTAT6
[2] = PBMC, Table 115, read-out: STAT6

T2 sequence (P40763 whole entry): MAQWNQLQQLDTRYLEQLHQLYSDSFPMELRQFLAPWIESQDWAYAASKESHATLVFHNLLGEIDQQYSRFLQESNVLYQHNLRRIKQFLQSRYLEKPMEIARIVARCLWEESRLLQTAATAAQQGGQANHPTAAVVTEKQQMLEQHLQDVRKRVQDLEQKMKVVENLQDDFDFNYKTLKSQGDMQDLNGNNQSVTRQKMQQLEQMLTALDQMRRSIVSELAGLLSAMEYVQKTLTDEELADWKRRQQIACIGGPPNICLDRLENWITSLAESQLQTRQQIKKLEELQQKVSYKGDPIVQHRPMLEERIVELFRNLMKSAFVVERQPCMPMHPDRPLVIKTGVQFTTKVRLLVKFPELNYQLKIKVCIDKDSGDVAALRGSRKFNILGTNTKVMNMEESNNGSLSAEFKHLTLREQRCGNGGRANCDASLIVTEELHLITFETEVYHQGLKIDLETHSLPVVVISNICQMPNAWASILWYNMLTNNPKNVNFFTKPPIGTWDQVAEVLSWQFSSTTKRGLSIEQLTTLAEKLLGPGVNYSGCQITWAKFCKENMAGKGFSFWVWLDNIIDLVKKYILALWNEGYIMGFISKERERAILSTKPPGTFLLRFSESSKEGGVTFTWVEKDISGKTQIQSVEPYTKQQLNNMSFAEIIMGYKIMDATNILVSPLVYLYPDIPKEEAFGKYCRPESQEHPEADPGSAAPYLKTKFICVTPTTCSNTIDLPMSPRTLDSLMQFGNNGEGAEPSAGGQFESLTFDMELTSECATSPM

Row | IC50 (pY641-STAT6 in PBMC; [1]) [nM] | IC50 (pY705-STAT3 in PBMC; Table 1114, read-out: pSTAT3) [nM] | IC50 (pY641-STAT6 in PBMC; [2]) [nM] | Compound | IC50 (pY641-STAT6 in PBMC; STAT6, PBMC, Table 115) [nM] | IC50 (pY705-STAT3 in PBMC; Table 115, read-out: STAT3) [nM]
1 |  |  |  | CCCOC(=O)[C@H](C)NP(=O)(Oc1ccccc1)[C@H](F)c1ccc2sc(C(=O)N[C@H]3CCCC[C@H]4CC[C@@H](C(=O)N5C[C@H](c6ccccc6)[C@@H](C#N)C56CC6)N4C3=O)cc2c1 (stereo partly drawn) [Compound 485, propyl (((S)-(2-(((3S,6S,10aS)-3-((6S,7R)-7-cyano-6-phenyl-4-azaspiro[2.4]heptane-4-carbonyl)-5-oxodecahydropyrrolo [1,2-a]azocin-6-yl)carbamoyl)benzo [b]thiophen-5-yl)fluoromethyl) (phenoxy)phosphoryl)-L-alaninate] | < 100 | > 3000
2 |  |  |  | CC(C)COC(=O)[C@H](C)NP(=O)(Cc1ccc2ccc(C(=O)N[C@H]3CCCC[C@H]4CC[C@@H](C(=O)N5CC(c6ccccc6)CC56CC6)N4C3=O)cc2c1)Oc1ccccc1 (stereo partly drawn) [Compound 410, isobutyl (((7-(((3S,6S,10aS)-5-oxo-3-(6-phenyl-4-azaspiro[2.4]heptane-4-carbonyl)decahydropyrrolo[1,2-a]azocin-6-yl)carbamoyl)naphthalen-2-yl)methyl)(phenoxy)phosphoryl)-L-alaninate] | > 3000 | > 3000
3 | 100 to 1000 | < 100 |  | CC(C)(C)C(=O)OCOP(=O)(OCOC(=O)C(C)(C)C)C(F)(F)c1ccc2sc(C(=O)N[C@H]3CCCC[C@H]4CC[C@@H](C(=O)N5CC(F)(c6ccccc6)C5)N4C3=O)cc2c1 [Compound 174, (((difluoro(2-(((3S,6S,10aS)-3-(3-fluoro-3-phenylazetidine-1-carbonyl)-5-oxodecahydropyrrolo [1,2-a]azocin-6-yl)carbamoyl)benzo[b]thiophen-5-yl)methyl)phosphoryl)bis(oxy)) bis(methylene) bis(2,2-dimethylpropanoate)] |  | 
4 |  |  |  | CCCOC(=O)[C@H](C)NP(=O)(Cc1ccc2sc(C(=O)N[C@H]3CCC[C@H]4CC[C@@H](C(=O)N5CC(c6cnccc6F)C5)N4C3=O)cc2c1)Oc1ccccc1 (stereo partly drawn) [Compound 304, propyl (((2-(((3S,6S,9aS)-3-(3-(4-fluoropyridin-3-yl)azetidine-1-carbonyl)-5-oxooctahydro-1H-pyrrolo[1,2-a]azepin-6-yl)carbamoyl)benzo [b]thiophen-5-yl)methyl)(phenoxy)phosphoryl)-L-alaninate] | > 3000 | < 100
5 |  |  |  | CCCOC(=O)[C@H](C)NP(=O)(Oc1ccccc1)[C@@H](F)c1ccc2sc(C(=O)N[C@H]3CCCC[C@H]4CC[C@@H](C(=O)N5C[C@H](c6cccc(F)c6)C(C#N)C56CC6)N4C3=O)cc2c1 (relative stereo) [Compound 337, propyl (((R)-(2-(((3S,6S,10aS)-3-((rel-trans)-7-cyano-6-(3-fluorophenyl)-4-azaspiro[2.4]heptane-4-carbonyl)-5-oxodecahydropyrrolo [1,2-a]azocin-6-yl)carbamoyl)benzo [b]thiophen-5-yl)fluoromethyl) (phenoxy)phosphoryl)-L-alaninate] | < 100 | > 3000
6 | 100 to 1000 | 100 to 1000 |  | CC(C)CC(=O)SCCOP(=O)(OCCSC(=O)CC(C)C)C(F)(F)c1ccc2sc(C(=O)N[C@H]3CCCC(C)[C@H]4CC[C@@H](C(=O)N5C[C@H](c6cc[nH]c(=O)c6)[C@@H](C#N)C5)N4C3=O)cc2c1 (single isomer, unassigned) [Compound 162, S,S′-(((((2-(((3S,6S,10aR)-3-((3R,4S or 3S,4R)-3-cyano-4-(2-oxo-1,2-dihydropyridin-4-yl)pyrrolidine-1-carbonyl)-10-methyl-5-oxodeca-hydropyrrolo[1,2-a]azocin-6-yl)carbamoyl)benzo [b]thiophen-5-yl)difluoromethyl)phosphoryl)bis(oxy))bis(ethane-2,1-diyl)) bis(3-methylbutane thioate)] |  | 
7 |  |  | 100 to 1000 | CC(C)(C)C(=O)SCCOP(=O)(OCCSC(=O)C(C)(C)C)C(F)(F)c1ccc2sc(C(=O)N[C@H]3CCC[C@H]4CC[C@@H](C(=O)N5CC(CS(C)(=O)=O)C5)N4C3=O)cc2c1 [Compound 1014, S,S′-((((difluoro(2-(((3S,6S,9aS)-3-(3-((methylsulfonyl)methyl)azetidine-1-carbonyl)-5-oxooctahydro-1H-pyrrolo[1,2-a]azepin-6-yl)carbamoyl)benzo [b]thiophen-5-yl)methyl)phosphoryl)bis(oxy))bis(ethane-2,1-diyl)) bis(2,2-dimethyl-propanethioate)] |  | < 100
8 |  |  |  | CCCOC(=O)[C@H](C)NP(=O)(Oc1ccccc1)C(F)c1ccc2sc(C(=O)N[C@H]3CCC[C@H]4CC[C@@H](C(=O)N5CC(c6cccnc6)C5)N4C3=O)cc2c1 (stereo partly drawn) [Compound 415, propyl ((fluoro(2-(((3S,6S,9aS)-5-oxo-3-(3-(pyridin-3-yl)azetidine-1-carbonyl)octahydro-1H-pyrrolo[1,2-a]azepin-6-yl)carbamoyl)benzo [b]thiophen-5-yl)methyl)(phenoxy)phosphoryl)-L-alaninate] | 1000 to 3000 | < 100
9 |  |  |  | CCCCOC(=O)[C@H](C)NP(=O)(Oc1ccccc1)C(F)(F)c1ccc2ccc(C(=O)N[C@H]3CCCC[C@H]4CC[C@@H](C(=O)N5CC(c6ccccc6)CC56CC6)N4C3=O)cc2c1 (stereo partly drawn) [Compound 407, butyl ((difluoro(7-(((3S,6S,10aS)-5-oxo-3-(6-phenyl-4-azaspiro[2.4]heptane-4-carbonyl)decahydropyrrolo[1,2-a]azocin-6-yl)carbamoyl)naphthalen-2-yl)methyl)(phenoxy)phosphoryl)-L-alaninate] | 1000 to 3000 | > 3000
10 |  |  |  | CCCOC(=O)[C@H](C)NP(=O)(Oc1ccccc1)C(F)c1ccc2sc(C(=O)N[C@H]3CCC[C@H]4CC[C@@H](C(=O)N5CC(c6cnccc6F)C5)N4C3=O)cc2c1 (stereo partly drawn) [Compound 943, propyl ((fluoro(2-(((3S,6S,9aS)-3-(3-(4-fluoropyridin-3-yl)azetidine-1-carbonyl)-5-oxooctahydro-1H-pyrrolo[1,2-a]azepin-6-yl)carbamoyl)benzo [b]thiophen-5-yl)methyl)(phenoxy)phosphoryl)-L-alaninate] | > 3000 | < 100
11 |  |  |  | CCCOC(=O)[C@H](C)N[P@](=O)(Oc1ccccc1)[C@@H](F)c1ccc2sc(C(=O)N[C@H]3CCC[C@H]4CC[C@@H](C(=O)N5CC(c6cnccc6N(C)C)C5)N4C3=O)cc2c1 (single isomer, unassigned) [Compound 941] | 1000 to 3000 | < 100
12 | > 3000 | < 100 |  | CC(C)(C)C(=O)OCOP(=O)(OCOC(=O)C(C)(C)C)C(F)(F)c1ccc2sc(C(=O)N[C@@]3(C)CCCC[C@H]4CC[C@@H](C(=O)N5CC(C(=O)N6CCOCC6)C5)N4C3=O)cc2c1 [Compound 186, (((difluoro(2-(((3S,6S, 10aS)-6-methyl-3-(3-(morpholine-4-carbonyl)azetidine-1-carbonyl)-5-oxodeca-hydropyrrolo [1,2-a]azocin-6-yl)carbamoyl)benzo[b]thiophen-5-yl)methyl)phosphoryl)bis (oxy))bis (methylene) bis(2,2-dimethyl-propanoate)] |  | 
13 | < 100 | 100 to 1000 |  | CC(C)(C)C(=O)OCOP(=O)(OCOC(=O)C(C)(C)C)[C@@H](F)c1ccc2sc(C(=O)N[C@H]3CCCC[C@H]4CC[C@@H](C(=O)N5C[C@@H](C#N)[C@H](c6ccccc6)C5)N4C3=O)cc2c1 (single isomer, unassigned) [Compound 184, ((((S)- or (R)-(2-(((3S,6S, 10aS)-3-((3S,4R or 3R,4S)-3-cyano-4-phenyl-pyrrolidine-1-carbonyl)-5-oxodeca-hydropyrrolo [1,2-a]azocin-6-yl)carbamoyl)benzo[b]thiophen-5-yl)fluoromethyl)phosphoryl)bis(oxy)) bis(methylene) bis(2,2-dimethyl-propanoate)] |  | 
14 |  |  | 100 to 1000 | N#C[C@H]1CN(C(=O)[C@@H]2CC[C@@H]3CCCC[C@H](NC(=O)c4ccc5ccc(C(F)(F)P(=O)(OCCSC(=O)CC6COC6)OCCSC(=O)CC6COC6)cc5c4)C(=O)N32)C[C@@H]1c1cc[nH]c(=O)c1 (single isomer, unassigned) [Compound 408] |  | > 3000
